In the supplement of paper PMC11208160:

assay: recombinant barcode read abundance after kanamycin selection (control-corrected) (log10(CPM+1)); higher = more efficient recombination; sequences stand for … in AGTGCAGAGAAAATCGGCCAGTTTTCTCTGCCTGCAGTCCGCATGCCGT…AGATTTATGCAGCGGACTGCCTTTCTCCCAAAGTGATAAACCGGACAGTATCATGGACCGGTTTTCCCGGTAATCCGTATTTGCAAGGTTGGTTTCACT; site = the 11-nt target
How it was run: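 Recombination efficiency was calculated from barcode counts at recombinant junctions, normalized to counts per million, averaged and corrected by the control. Each value is given as log10(CPM+1). The constructs were Gibson-cloned oligos (promoter, target, barcode, J23119-driven first 104 bridge RNA bases) in a vector with the remaining 73 bp and a T7-inducible recombinase, co-electroporated into E. coli with a donor plasmid and plated in duplicate on chloramphenicol/ampicillin LB agar (control) or chloramphenicol/ampicillin/kanamycin with 0.1 mM IPTG.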
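Note: IS621 recombinase and bridge RNA in Escherichia coli cells.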

Row | Sequence | recombinant barcode read abundance (log10)
1 | CTCGCTACTTGGGTTCTAACCTGTTGCTT (site CTCGATACTAA) | 0.0927
2 | CTCGCTACTTGGGTTCTAACCTGTTGCTT (site CTCGCTACTAA) | 0.264
3 | CTCGCTCCTTGGGTTCTAACCTGTTGCCA (site CTCGCTCCTTG) | 0.275
4 | CTCGCTCCTTGGGTTCTAACCTGTTGCCA (site GAAAAGTCTCA) | 0.113
5 | CTCGGAACTTGGGTTCTAACCTGTTGCAT (site CTCGGAACTAT) | 1.86
6 | CTCGGAACTTGGGTTCTAACCTGTTGCAT (site CTGGGAACTCT) | 0.00945
7 | CTCGGGCCTTGGGTTCTAACCTGTTGCCT (site ATCGGGCCTAG) | 0.0932
8 | CTCGGGCCTTGGGTTCTAACCTGTTGCCT (site CTCGGGCCTAG) | 0.144
9 | CTCGGGCCTTGGGTTCTAACCTGTTGCCT (site GTCGGGCCTAG) | 0.0296
10 | CTCGGGCCTTGGGTTCTAACCTGTTGCCT (site TTCGGGCCTAG) | 0.0756
11 | CTCGTTACTTGGGTTCTAACCTGTTGCCT (site CTCGTAACTAG) | 0.0393
12 | CTCGTTACTTGGGTTCTAACCTGTTGCCT (site CTCGTCACTAG) | 0.112
13 | CTCGTTACTTGGGTTCTAACCTGTTGCCT (site CTCGTGACTAG) | 0.0469
14 | CTCGTTACTTGGGTTCTAACCTGTTGCCT (site CTCGTTACTAG) | 0.682
15 | CTCGTTGCTTGGGTTCTAACCTGTTGCCT (site ATCGTTGCTAG) | 0.0725
16 | CTCGTTGCTTGGGTTCTAACCTGTTGCCT (site CTCGTTGCTAG) | 0.519
17 | CTCGTTGCTTGGGTTCTAACCTGTTGCCT (site GTCGTTGCTAG) | 0.0989
18 | CTCGTTGCTTGGGTTCTAACCTGTTGCCT (site TTCGTTGCTAG) | 0.0838
19 | CTCTAGTCTTGGGTTCTAACCTGTTGCAT (site CTCTAGTCTAA) | 0.545
20 | CTCTAGTCTTGGGTTCTAACCTGTTGCAT (site CTCTAGTCTAC) | 0.263
21 | CTCTAGTCTTGGGTTCTAACCTGTTGCAT (site CTCTAGTCTAG) | 0.109
22 | CTCTAGTCTTGGGTTCTAACCTGTTGCAT (site CTCTAGTCTAT) | 1.8

Row | Sequence | recombinant barcode read abundance (log10)
23 | CTCTAGTCTTGGGTTCTAACCTGTTGCGT (site CTCTAGTCTAA) | 0.268
24 | CTCTAGTCTTGGGTTCTAACCTGTTGCGT (site CTCTAGTCTAC) | 2.54
25 | CTCTAGTCTTGGGTTCTAACCTGTTGCGT (site CTCTAGTCTAG) | 0.125
26 | CTCTAGTCTTGGGTTCTAACCTGTTGCGT (site CTCTAGTCTAT) | 1.79
27 | CTCTCAGCTTGGGTTCTAACCTGTTGCGA (site CTCTAAACTTC) | 0.15
28 | CTCTCAGCTTGGGTTCTAACCTGTTGCGA (site CTCTCAGCTTC) | 0.549
29 | CTCTCCACTTGGGTTCTAACCTGTTGCCA (site CTCTCCACTTG) | 0.138
30 | CTCTCCACTTGGGTTCTAACCTGTTGCCA (site CTCTCGACTTG) | 0.0411
31 | CTCTCCGCTTGGGTTCTAACCTGTTGCCT (site CTCTCCGCTAG) | 0.77
32 | CTCTCCGCTTGGGTTCTAACCTGTTGCCT (site CTCTCCTCTAG) | 0.0931
33 | CTCTCGACTTGGGTTCTAACCTGTTGCCA (site CTCTCCACTTG) | 0.0478
34 | CTCTCGACTTGGGTTCTAACCTGTTGCCA (site CTCTCGACTTG) | 0.328
35 | CTCTCGTCTTGGGTTCTAACCTGTTGCAT (site CTCTCGTCTAA) | 0.0866
36 | CTCTCGTCTTGGGTTCTAACCTGTTGCAT (site CTCTCGTCTAC) | 0.08
37 | CTCTCGTCTTGGGTTCTAACCTGTTGCAT (site CTCTCGTCTAG) | 0.0361
38 | CTCTCGTCTTGGGTTCTAACCTGTTGCAT (site CTCTCGTCTAT) | 1.45
39 | CTCTCGTCTTGGGTTCTAACCTGTTGCGG (site CTCTCGTCTCC) | 1.16
40 | CTCTCGTCTTGGGTTCTAACCTGTTGCGG (site GGACGTGCTAG) | 0.127
41 | CTCTGGACTTGGGTTCTAACCTGTTGCTT (site CTCTGGACTAA) | 1.13
42 | CTCTGGACTTGGGTTCTAACCTGTTGCTT (site CTCTTGACTAA) | 0.0289
43 | CTCTTCGCTTGGGTTCTAACCTGTTGCCT (site CTCTTCACTCG) | 0.208
